Here are results for one compound from patent US11506670B2, “Method of genome-wide direct identification of electrophile-sensing targets” (Cornell University, priority 2018, dated 2022).

Common to all, as to format: cell-based, human
One assay deals with NF-κB-signaling (Ube2V1). The experiment in a line: NF-κB dual luciferase reporter assay after T-REX on Halo-Ube2V1. The conditions noted are these: T-REX HNEylation of Ube2V1, coexpression of Ube2N. The method, then: 1.5-1.6×10^5 HEK 293T cells were seeded in each well of a 48-well plate. 24 h later, the cells were transfected with 120 ng of the designated HaloTag fusion gene plasmid and 120 ng of NF-kB-Firefly luciferase: pCMV-Renilla luciferase (40:1) mix, using TransIT-2020 transfection agent. 24 h post-transfection, cells were treated with 25 μM Ht-PreHNE or vehicle (corresponding volume of DMSO alone) for 2.5 h, rinsed three times and irradiated with 365 nm UV light for 10 min. The cells were incubated for a further 8 h. For dual luciferase assay, cells in each well were gently washed with 1×DPBS and lysed in 65 μL of 1× passive lysis buffer containing in final concentrations 25 mM Tris (pH 7.8), 2 mM 1,2-CDTA, 2 mM DTT, 1 mg/mL BSA, 1% Triton X-100, and 10% Glycerol. 20 μL of the lysate was transferred to a white opaque 96-well plate (Corning). Firefly luciferase was read after adding 50 μL Firefly substrate (75 mM HEPES pH 8.0, 4 mM MgSO4, 20 mM DTT, 0.1 mM EDTA, 0.53 mM ATP, 0.27 mM Coenzyme-A, 0.47 mM D-Luciferin Firefly). Subsequently, 50 μL of Stop and Glow substrate (7.5 mM sodium acetate pH 5.0, 400 mM sodium sulfate, 10 mM CDTA, 15 mM sodium pyrophosphate, 0.025 mM APMBT, 5.5 μM Coelenterazine) was added and Renilla luciferase activity was measured.
In general terms: In a reporter assay the amount or activity of a reporter protein is the signal.

In another assay the test system is γ-H2AX. The experiment in a line: γ-H2AX immunofluorescence in HEK293T cells. The method, then: Cells were grown to 70% confluence in 35 mm glass-bottomed dishes and transfected with HaloTagged plasmids. T-REX™ delivery was performed as mentioned above. […] The fixative was aspirated and the cells washed three times with 1×DPBS with 5-min incubation at room temperature. Blocking and permeabilization was performed in one-step by incubation at 37° C. for 1 h in 1×DPBS containing 3% BSA and 0.2% Triton X-100. Cells were subsequently incubated with primary antibody (1:300, Table 4) in incubation buffer (1% BSA, 0.02% Triton X-100 in 1×DPBS) for 2 h at room temperature. Cells were rinsed 3 times with 1×DPBS with 5 min incubation for each wash and subsequently incubated in dark for 1 h at room temperature with corresponding second antibody (1:1000, Table 4) in incubation buffer. Cells were rinsed 3 times with 1×DPBS with 5 min incubation for each rinse. DAPI (Sigma) was freshly prepared in 1×DPBS from 2 mg/mL wt./v stock solution in water and added to the wells at the final concentration of 0.2 μg/mL. The samples were incubated in dark for 1 min and washed once with 1×DPBS and stored at 4° C. in dark till images were taken using a Zeiss LSM 710 meta confocal fluorescence microscope. Image analysis was performed using Image-J (NIH).

A further assay has as its system Nrf2-AR pathway. The experiment in a line: Flow cytometry ARE-GFP reporter assay. As to the method:
(i) Transient transfection using TransIT-2020. Perform the transfection as described in Step 40 Option (C) (i). Briefly: Transfect the cells with ARE:GFP, pFN21a-Halo-Keap1, and pcDNA3.1 myc-Nrf2 in a 3:1:1 ratio by mass. For transient transfection of cells in a single well of a 48-well plate, in 26 μL of antibiotic-free, serum-free media add 156 ng of ARE:GFP, 52 ng of pFN21a-Halo-TEV-Keap1, and 52 ng of pcDNA3.1 myc-Nrf2 (260 ng total) followed by the addition of 0.78 μL of TransIT-2020. The lipoplex is mixed gently and incubated at room temperature for 20 min.
(iv) Treatment of cells with T-REX™ delivery photocaged precursor and photo-uncaging (TIMING: 7 hours). […]
In this flow cytometry assay, live cells are first gated by forward (size) and side scatter to give a general population of healthy cells (FIG. 26A). […] Analyzing this scatter group for green fluorescence (AR reporter) told a slightly different story to that painted by previous ensemble experiments (Parvez et al., “Substoichiometric Hydroxynonenylation of a Single Protein Recapitulates Whole-Cell-Stimulated Antioxidant Response,” J. Am. Chem. Soc. 137:10-13 (2015); Lin et al., “A Generalizable Platform for Interrogating Target- and Signal-Specific Consequences of Electrophilic Modifications in Redox-Dependent Cell Signaling,” J. Am. Chem. Soc. 137:6232-44 (2015), which are hereby incorporated by reference in their entirety).

With `CCCCCC(O)/C=C/C=O` (stereo not drawn) [HNE, 4-hydroxynonenal], in the assay with NF-κB-signaling (Ube2V1), the “upregulation in NF-κB-signaling relative to all controls” value is on record as 3 fold. Besides, the “γ-H2AX upregulation in Ube2V2-C69S-expressing cells” value in the assay on γ-H2AX (T-REX, over 18-h time course) is “no significant γ-H2AX upregulation”. The “time post light exposure up to which increased γ-H2AX could be measured” value in the assay on γ-H2AX (basal after 24 h) is “up to 18 h”. The “increase in cellular γ-H2AX following Ube2V2(C69)-targeted-HNEylation” value in the assay on γ-H2AX (wt-Halo-Ube2V2, T-REX) is listed as “approximately two-fold”. Further, the “AR-driven GFP signal” value in the assay on Nrf2-AR pathway (T-REX delivery on Halo-Keap1) was “increase in AR in all but cells with the highest basal AR”; in the assay on Nrf2-AR pathway (whole-cell HNE treatment), “strongly increases AR in a subset of cells”.
